Experiment [1] deals with T1, EGFR L858R (Homo sapiens, UniProt P00533, L858R).
T1 construct: purchased SignalChem E10-122BG
Briefly: Biochemical EGFR inhibition assay (Caliper mobility shift), EGFR L858R. The conditions noted are these: biochemical Caliper mobility shift assay, EGFR L858R enzyme; read-out: Enz EGFR L858R IC50. As to the method:
(§1) Inhibitory effects of the compounds of the disclosure were measured in biochemical assays that measure the phosphorylation activity of EGFR enzyme phosphorylates 2.5 micromolar 5-FAM-[…]-CONH2 peptide substrate (ProfilerPro Kinase Peptide Substrate 22, PerkinElmer, Part #760366) in the presence of adenosine-5′-triphosphate (ATP) and varying concentrations of the test compound in 100 mM 2-[4-(2-hydroxyethyl)piperazin-1-yl]ethanesulfonic acid (HEPES), pH 7.5, 10 mM MgCl2, 0.015% Brij-35, 1 mM dithiothreitol (DTT), 1.0% dimehylsulfoxide (DMSO). Assays were performed at 1.0 mM ATP or at ATP Km of the EGFR enzymes. Reactions proceeded until between 10% to 20% total peptides were phosphorylated at room temperature (25° C.) and were terminated with 35 mM 2,2′,2″,2′″-(ethane-1,2-diyldinitrilo)tetraacetic acid (EDTA). Product was detected using the Caliper mobility shift detection method where the phosphorylated peptide (product) and substrate were electrophoretically separated and measured. Percent activity was plotted against log concentration of compound and points to generate an apparent IC50. The following enzyme forms of • EGFR were examples that were used in these assays: • EGFR WT (SignalChem, E10-112G) • EGFR L858R (SignalChem, E10-122BG) • EGFR (d746-750) (SignalChem, E10-122JG) • EGFR L858R C797S (SignalChem, E10-122ZG) • EGFR (d746-750) C797S (SignalChem, E10-122TG)

Experiment [2] concerns the target intracellular phosphorylation of EGFR (Tyr1068) in PC-9 cells (Homo sapiens, UniProt P00533, DEL746-750). The experiment can be described thus: PC-9 pEGFR AlphaLISA assay. The experiment is classed as cell-based. The settings on record: 4 hours incubation, read-out: Phos EGFR PC9 IC50. As to the method: PC-9/A431 pEGFR AlphaLISA Assays
Inhibitory effects of compounds were evaluated in cellular assays that measure level of intracellular phosphorylation of EGFR in PC-9 (ECACC, #90071810, Milipore/Sigma) and A431 cell lines (ATCC, CRL-1555) using AlphaLISA sureFire ultra p-EGFR (Tyr1068) assay kit (PerkinElmer, ALSU-PEGFR-A50K). PC-9 cells were seeded at 3.125×10^5 cells/ml in 40 μL phenol-free DMEM supplemented with 10% FBS per well of a 384 well plate (Corning, 3764), while A431 were seeded at […] in 40 μL in phenol-free DMEM with 0.5% FBS. Cells were allowed to adhere overnight at 37° C./5% CO2. On the next day, compounds were transferred at 4-fold, 10-point serial dilution from compound source plate to cell plates using liquid handler Echo550 and were incubated at 37° C./5% CO2 for 4 hours. A431 cells were stimulated prior harvesting for 10 min with EGF at final concentration of 30 ng/ml in the incubator. Medium was removed from the plates and cells were lysed with 10 μL of 1× AlphaLISA lysis buffer (supplemented with 1× protease/phosphatase inhibitor cocktail) followed by shaking at 600 rpm for 30 minutes at room temperature. Lysates were transferred to Optiplate (Apricot designs) and 5 ul of 1× acceptor bead mix (prepared just before use) was added to each well followed by incubation at room temperature for 1.5-2 h in dark. Then 5 μL of freshly-made donor bead mix is added to each well under subdued lighting or green filters, was mixed well on the shaker and the plate was sealed and left for an overnight incubation at room temperature in dark. On the next day, the plate was read the Envision using standard AlphaLisa settings. Percent of pEGFR inhibition was plotted against log concentration of compounds to generate IC50 values.

The target of experiment [3] is T2, EGFR (d746-750) (Homo sapiens, UniProt P00533, DEL746-750).
T2 construct: purchased SignalChem E10-122JG
T2 sequence (P00533 with tags, fused parts or gaps DEL746-750 limits assumed): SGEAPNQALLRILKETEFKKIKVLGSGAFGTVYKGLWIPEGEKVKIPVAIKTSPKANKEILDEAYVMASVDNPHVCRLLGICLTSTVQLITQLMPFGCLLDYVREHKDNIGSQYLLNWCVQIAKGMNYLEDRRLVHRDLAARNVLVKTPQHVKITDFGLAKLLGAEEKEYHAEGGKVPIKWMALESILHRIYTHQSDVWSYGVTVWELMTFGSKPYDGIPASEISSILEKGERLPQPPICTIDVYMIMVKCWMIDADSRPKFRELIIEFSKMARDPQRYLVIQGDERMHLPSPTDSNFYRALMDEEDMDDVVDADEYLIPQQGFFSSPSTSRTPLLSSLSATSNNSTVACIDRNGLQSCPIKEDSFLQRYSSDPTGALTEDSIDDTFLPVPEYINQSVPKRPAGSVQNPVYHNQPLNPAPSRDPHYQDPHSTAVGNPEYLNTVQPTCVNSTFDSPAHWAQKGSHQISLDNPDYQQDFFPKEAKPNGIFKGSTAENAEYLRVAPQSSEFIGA
The experiment can be described thus: Biochemical EGFR inhibition assay (Caliper mobility shift), EGFR (d746-750). The settings on record: biochemical Caliper mobility shift assay, EGFR Exon 19-del enzyme; read-out: Enz EGFR Exon 19-del IC50. As to the method: as §1

SMILES strings stand for the structures. pIC50: −log10 of the molar value. Where only a bound is given, the exact number is not on record here.

Sequence of intracellular phosphorylation of EGFR (Tyr1068) in PC-9 cells (P00533 with tags, fused parts or gaps DEL746-750): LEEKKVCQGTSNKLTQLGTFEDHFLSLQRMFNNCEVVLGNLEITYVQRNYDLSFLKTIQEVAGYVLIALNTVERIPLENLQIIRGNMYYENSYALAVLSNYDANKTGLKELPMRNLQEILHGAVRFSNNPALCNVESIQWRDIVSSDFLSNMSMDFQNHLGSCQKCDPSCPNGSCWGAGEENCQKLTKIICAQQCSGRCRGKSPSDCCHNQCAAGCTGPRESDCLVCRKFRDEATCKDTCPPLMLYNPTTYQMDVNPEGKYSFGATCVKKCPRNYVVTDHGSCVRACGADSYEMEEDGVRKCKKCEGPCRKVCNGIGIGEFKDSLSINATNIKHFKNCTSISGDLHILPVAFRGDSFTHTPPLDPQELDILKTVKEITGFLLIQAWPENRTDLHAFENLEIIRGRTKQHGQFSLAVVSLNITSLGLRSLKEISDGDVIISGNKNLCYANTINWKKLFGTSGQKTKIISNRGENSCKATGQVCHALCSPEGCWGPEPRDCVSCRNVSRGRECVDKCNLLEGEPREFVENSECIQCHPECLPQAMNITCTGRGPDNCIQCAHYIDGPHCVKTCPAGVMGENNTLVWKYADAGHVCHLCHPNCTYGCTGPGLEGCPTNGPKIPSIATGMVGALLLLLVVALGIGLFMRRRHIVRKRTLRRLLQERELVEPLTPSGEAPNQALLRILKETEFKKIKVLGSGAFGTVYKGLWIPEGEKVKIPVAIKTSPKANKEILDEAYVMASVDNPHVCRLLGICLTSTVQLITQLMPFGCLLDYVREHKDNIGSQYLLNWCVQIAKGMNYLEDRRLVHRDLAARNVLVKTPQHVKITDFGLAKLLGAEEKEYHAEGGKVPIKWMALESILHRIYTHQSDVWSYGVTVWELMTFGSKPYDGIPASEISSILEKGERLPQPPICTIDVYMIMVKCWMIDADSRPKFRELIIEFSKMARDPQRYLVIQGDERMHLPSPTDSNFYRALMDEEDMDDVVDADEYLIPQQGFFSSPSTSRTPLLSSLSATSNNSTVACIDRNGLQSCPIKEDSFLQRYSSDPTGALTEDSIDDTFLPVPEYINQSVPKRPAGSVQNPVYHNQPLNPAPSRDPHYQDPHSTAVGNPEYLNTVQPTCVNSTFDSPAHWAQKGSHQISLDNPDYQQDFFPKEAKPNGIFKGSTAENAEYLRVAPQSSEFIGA
T1 sequence (P00533 25-1210 L858R): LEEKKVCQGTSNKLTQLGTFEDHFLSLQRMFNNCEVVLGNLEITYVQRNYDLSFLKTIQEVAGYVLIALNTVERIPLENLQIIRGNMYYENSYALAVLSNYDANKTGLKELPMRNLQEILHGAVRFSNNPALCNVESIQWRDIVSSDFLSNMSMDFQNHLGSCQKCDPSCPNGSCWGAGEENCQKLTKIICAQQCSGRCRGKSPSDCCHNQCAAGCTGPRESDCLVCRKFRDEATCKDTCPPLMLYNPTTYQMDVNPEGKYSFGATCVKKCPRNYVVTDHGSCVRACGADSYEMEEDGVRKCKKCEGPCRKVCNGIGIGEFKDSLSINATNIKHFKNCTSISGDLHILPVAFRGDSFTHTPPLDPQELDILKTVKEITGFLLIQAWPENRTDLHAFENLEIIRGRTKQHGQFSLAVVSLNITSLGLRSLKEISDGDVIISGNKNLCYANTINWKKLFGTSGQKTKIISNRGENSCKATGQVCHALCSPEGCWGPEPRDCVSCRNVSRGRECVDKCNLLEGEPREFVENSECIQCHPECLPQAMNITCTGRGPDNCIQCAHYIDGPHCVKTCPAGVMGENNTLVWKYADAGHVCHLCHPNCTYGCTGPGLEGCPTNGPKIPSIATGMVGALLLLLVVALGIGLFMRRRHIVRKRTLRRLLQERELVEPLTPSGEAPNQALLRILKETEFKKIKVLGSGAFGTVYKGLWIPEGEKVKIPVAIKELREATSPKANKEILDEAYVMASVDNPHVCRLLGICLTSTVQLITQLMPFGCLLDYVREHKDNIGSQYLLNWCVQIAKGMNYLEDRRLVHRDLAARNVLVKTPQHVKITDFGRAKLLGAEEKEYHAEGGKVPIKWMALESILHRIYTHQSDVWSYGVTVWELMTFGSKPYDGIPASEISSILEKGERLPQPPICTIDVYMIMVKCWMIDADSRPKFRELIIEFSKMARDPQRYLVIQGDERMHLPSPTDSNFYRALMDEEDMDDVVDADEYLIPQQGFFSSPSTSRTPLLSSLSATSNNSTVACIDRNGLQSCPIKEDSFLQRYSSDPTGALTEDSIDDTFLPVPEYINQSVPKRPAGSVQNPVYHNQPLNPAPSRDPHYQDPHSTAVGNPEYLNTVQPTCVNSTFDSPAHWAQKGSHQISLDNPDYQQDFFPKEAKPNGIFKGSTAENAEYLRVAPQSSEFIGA

On to `COc1nn(C)cc1-c1cc(O[C@@H]2COC[C@H]2F)c2c(Nc3ccc4ncsc4c3)ncnc2c1` (racemic) [Example 8, trans-N-(5-((-4-fluorotetrahydrofuran-3-yl)oxy)-7-(3-methoxy-1-methyl-1H-pyrazol-4-yl)quinazolin-4-yl)benzo[d]thiazol-6-amine], for which the negative-log IC50 (pIC50) in experiment [1] is 7.30 to 8.00; in experiment [2] it was 7.30 to 8.00; in experiment [3], at least 8.00.
Take `C[C@@H]1OC[C@@H]1Oc1cc(-c2cnn(C)c2)cc2ncnc(Nc3ccc4ncsc4c3)c12` (racemic) [Example 9, cis-N-(7-(1-methyl-1H-pyrazol-4-yl)-5-((-2-methyloxetan-3-yl)oxy)quinazolin-4-yl)benzo[d]thiazol-6-amine]: the values for the pIC50 in experiment [1], in experiment [2] and in experiment [3] were at least 8.00, 7.30 to 8.00 and at least 8.00, respectively.
`C[C@@H]1OC[C@H]1Oc1cc(-c2cnn(C)c2)cc2ncnc(Nc3ccc4ncsc4c3)c12` (racemic) [Example 10, trans-N-(7-(1-methyl-1H-pyrazol-4-yl)-5-(((2S,3S)-2-methyloxetan-3-yl)oxy)quinazolin-4-yl)benzo[d]thiazol-6-amine]: the values for the pIC50 in experiment [1], in experiment [2] and in experiment [3] were at least 8.00, 7.30 to 8.00 and at least 8.00, respectively.
As for `C[C@H]1COCC[C@H]1Oc1cc(-c2cnn(C)c2)cc2ncnc(Nc3ccc4ncsc4c3)c12` (racemic) [Example 25, cis-racemic N-(7-(1-methyl-1H-pyrazol-4-yl)-5-(((3S,4R)-3-methyltetrahydro-2H-pyran-4-yl)oxy)quinazolin-4-yl)benzo[d]thiazol-6-amine], the negative-log IC50 (pIC50) in experiment [1] was at least 8.00; in experiment [2] it was 7.30 to 8.00; in experiment [3] it was at least 8.00.
On to `C[C@H]1COCC[C@@H]1Oc1cc(-c2cnn(C)c2)cc2ncnc(Nc3ccc4ncsc4c3)c12` (racemic) [Example 26, trans-racemic N-(7-(1-methyl-1H-pyrazol-4-yl)-5-(((3S,4S)-3-methyltetrahydro-2H-pyran-4-yl)oxy)quinazolin-4-yl)benzo[d]thiazol-6-amine], for which the negative logarithm of the IC50 (pIC50) in experiment [1], in experiment [2] and in experiment [3] was at least 8.00 each time.
Regarding `CC(Oc1cc(-c2cnn(C)c2)cc2ncnc(Nc3ccc4ncsc4c3)c12)C(F)F` (racemic) [Example 51, (rac)-N-(5-((1,1-difluoropropan-2-yl)oxy)-7-(1-methyl-1H-pyrazol-4-yl)quinazolin-4-yl)benzo[d]thiazol-6-amine], the pIC50 in experiment [1], in experiment [2] and in experiment [3] was at least 8.00 each time.
For the compound `Cn1cc(-c2cc(OCC3CCOC3)c3c(Nc4ccc5ncsc5c4)ncnc3c2)cn1` (single isomer, unassigned) [Example 42], the results for the pIC50 in experiment [1] and in experiment [2] were at least 8.00 and 7.30 to 8.00, respectively.
Regarding `Cn1cc(-c2cc(O[C@@H]3CCOC[C@@H]3F)c3c(Nc4ccc5ncsc5c4)ncnc3c2)cn1` (single isomer, unassigned) [Example 44], the pIC50 in experiment [1] is at least 8.00; in experiment [2], 7.30 to 8.00.
Regarding `CN1CC[C@@](C)(COc2cc(-c3cnn(C)c3)cc3ncnc(Nc4ccc5ncsc5c4)c23)C1=O` (single isomer, unassigned) [Example 56], the negative logarithm of the IC50 (pIC50) in experiment [1] is at least 8.00; in experiment [2], 7.30 to 8.00.
`COC[C@H](C)Oc1cc(N2CCN(C)CC2)cc2ncnc(Nc3ccc4ncsc4c3)c12` (single isomer, unassigned) [Example 206]: the figures for the negative-log IC50 (pIC50) in experiment [1] and in experiment [2] were at least 8.00 and 7.30 to 8.00, respectively.
In the same order, the values of `C[C@H](CO)Oc1cc(N2CCN(C)CC2)cc2ncnc(Nc3ccc4ncsc4c3)c12` (single isomer, unassigned) [Example 294] are at least 8.00 and 7.30 to 8.00.
With `C[C@H]1[C@H](Oc2cc(-c3cnn(C)c3)cc3ncnc(Nc4ccc5ncsc5c4)c23)CN1C` (single isomer, unassigned) [Example 322], the pIC50 in experiment [1] was 7.30 to 8.00; in experiment [3] it was at least 8.00.
Consider `CN1C[C@H](F)[C@H](Oc2cc(-c3cnn(C)c3)cc3ncnc(Nc4ccc5ncsc5c4)c23)C1` (single isomer, unassigned) [Example 381], for which the pIC50 was at least 8.00 in experiment [1] and 7.30 to 8.00 in experiment [2].
In the case of `Cn1cc(-c2cc(O[C@@H]3C[C@@H](O)[C@@H](O)C3)c3c(Nc4ccc5ncsc5c4)ncnc3c2)cn1` (single isomer, unassigned) [Example A23], the results for the negative-log IC50 (pIC50) in experiment [1] and in experiment [2] were at least 8.00 and 7.30 to 8.00, respectively.
Regarding `CN1CC[C@H](Oc2cc(-c3cnn(C)c3)cc3ncnc(Nc4ccc5ncsc5c4)c23)[C@@H](O)C1` (single isomer, unassigned) [Example A36], the values for the pIC50 in experiment [1] and in experiment [2] were at least 8.00 and 7.30 to 8.00, respectively.
Regarding `CO[C@@H]1CN(C)CC[C@H]1Oc1cc(-c2cnn(C)c2)cc2ncnc(Nc3ccc4ncsc4c3)c12` (single isomer, unassigned) [Example A44], the pIC50 is at least 8.00 in experiment [1] and 7.30 to 8.00 in experiment [2].
Consider `CN1CC[C@@H](Oc2cc(-c3cnn(C)c3)cc3ncnc(Nc4ccc5ncsc5c4F)c23)C1` [Example 4, (R)-7-fluoro-N-(7-(1-methyl-1H-pyrazol-4-yl)-5-((1-methylpyrrolidin-3-yl)oxy)quinazolin-4-yl)benzo[d]thiazol-6-amine], for which the negative-log IC50 (pIC50) in experiment [1] and in experiment [2] was 7.30 to 8.00 each time.
Turning to `COc1nn(C2CCN(C)CC2)cc1-c1cc(F)c2c(Nc3ccc4ncsc4c3F)ncnc2c1` [Example 226, 7-fluoro-N-(5-fluoro-7-(3-methoxy-1-(1-methylpiperidin-4-yl)-1H-pyrazol-4-yl)quinazolin-4-yl)benzo[d]thiazol-6-amine], the pIC50 in experiment [1] was under 7.30; in experiment [3], 7.30 to 8.00.
As for `COc1cc(-c2cc(OC3CCOCC3)c3c(Nc4ccc5ncsc5c4)ncnc3c2)n(C)n1` [Example 256, N-(7-(3-methoxy-1-methyl-1H-pyrazol-5-yl)-5-((tetrahydro-2H-pyran-4-yl)oxy)quinazolin-4-yl)benzo[d]thiazol-6-amine], the negative-log IC50 (pIC50) in experiment [1] and in experiment [3] was under 7.30 throughout.
In the case of `COc1cc2c(Nc3ccc4ncsc4c3F)ncnc2cc1-c1cnn(C)c1` [Example 265, 7-fluoro-N-(6-methoxy-7-(1-methyl-1H-pyrazol-4-yl)quinazolin-4-yl)benzo[d]thiazol-6-amine], the negative logarithm of the IC50 (pIC50) in experiment [1] and in experiment [2] was at least 8.00 each time.
As for `COc1cc2ncnc(Nc3ccc4ncsc4c3)c2cc1N[C@@H]1CCN(C)C[C@H]1F` [Example 301, N4-(benzo[d]thiazol-6-yl)-N6-((3R,4R)-3-fluoro-1-methylpiperidin-4-yl)-7-methoxyquinazoline-4,6-diamine], the negative-log IC50 (pIC50) in experiment [1] and in experiment [3] was at least 8.00 throughout.
In the case of `CN1CCN(C(=O)Oc2cc(OC3CCOCC3)c3c(Nc4ccc5ncsc5c4)ncnc3c2)CC1` [Example A11, 4-[(1,3-benzothiazol-6-yl)amino]-5-(oxan-4-yloxy)quinazolin-7-yl 4-methylpiperazine-1-carboxylate], the negative-log IC50 (pIC50) in experiment [1] is under 7.30; in experiment [3], 7.30 to 8.00.
For the compound `CN1CCN(c2cc(OC3CCOCC3)c3c(Nc4ccc5ncsc5c4)ncnc3c2)CC1(C)C` [Example A58, N-(5-((tetrahydro-2H-pyran-4-yl)oxy)-7-(3,3,4-trimethylpiperazin-1-yl)quinazolin-4-yl)benzo[d]thiazol-6-amine], the negative logarithm of the IC50 (pIC50) in experiment [1] and in experiment [3] was under 7.30 throughout.
